Measurements published in patent publication US20050106243A1, “Process for the preparation of free-flowing, pulverized atorvastatin adsorbates” (priority 2003, published 2005).

Assay: Impurity profile (sum of all impurities, HPLC) at start and after storage
Assay type: physicochemical
Experimental: All HPLC measurements were performed with an […].
Impurity profile: Sum of all the impurities: HPLC, in %: […]

Sum of all the impurities, HPLC (15 days (70° C./75% relative humidity)): 1.92% | Sum of all the impurities, HPLC (Start): 1.07%
SMILES: CC(C)c1c(C(=O)Nc2ccccc2)c(-c2ccccc2)c(-c2ccc(F)cc2)n1CC[C@@H](O)C[C@@H](O)CC(=O)[O-].CC(C)c1c(C(=O)Nc2ccccc2)c(-c2ccccc2)c(-c2ccc(F)cc2)n1CC[C@@H](O)C[C@@H](O)CC(=O)[O-].[Ca+2] (relative stereo) [amorphous atorvastatin calcium, calcium salt of [R-(R*,R*)]-2-(4-fluorophenyl)-β,δ-dihydroxy-5-(1-methylethyl)-3-phenylphenylamino)carbonyl]-1H-pyrrol-1-heptanoic acid]
